The record followed here is article PMC6118079 (Iranian Journal of Basic Medical Sciences, 2018).

For this assay, the system named is krait snake venom acetylcholinesterase (AChE). Format: biochemical, Bungarus sindanus. The following applies: no extract (control); 0.5-1 mM substrate, 50 mM phosphate pH 7.4, 37 °C; crude venom as enzyme source.

In general, Km refers to the concentration of substrate that gives half-maximal velocity. For the compound `CC(=O)SCC[N+](C)(C)C` [acetylthiocholine], the Michaelis constant (Km) is 160 µM.
